Results from US10294207B2, “Pyrazole derivatives as TNIK, IKKϵ and TBK1 inhibitor and pharmaceutical composition comprising same” (GREEN CROSS CORPORATION, priority 2015, dated 2019).

Key:
TBK1 = target: T1, TBK1 (Homo sapiens, UniProt Q9UHD2); assay: TBK1 inhibition, ADP-Glo Kinase Assay; assay type: biochemical; details: luminometer
T1 construct: purchased Promega V3991
T1 sequence (Q9UHD2 1-729): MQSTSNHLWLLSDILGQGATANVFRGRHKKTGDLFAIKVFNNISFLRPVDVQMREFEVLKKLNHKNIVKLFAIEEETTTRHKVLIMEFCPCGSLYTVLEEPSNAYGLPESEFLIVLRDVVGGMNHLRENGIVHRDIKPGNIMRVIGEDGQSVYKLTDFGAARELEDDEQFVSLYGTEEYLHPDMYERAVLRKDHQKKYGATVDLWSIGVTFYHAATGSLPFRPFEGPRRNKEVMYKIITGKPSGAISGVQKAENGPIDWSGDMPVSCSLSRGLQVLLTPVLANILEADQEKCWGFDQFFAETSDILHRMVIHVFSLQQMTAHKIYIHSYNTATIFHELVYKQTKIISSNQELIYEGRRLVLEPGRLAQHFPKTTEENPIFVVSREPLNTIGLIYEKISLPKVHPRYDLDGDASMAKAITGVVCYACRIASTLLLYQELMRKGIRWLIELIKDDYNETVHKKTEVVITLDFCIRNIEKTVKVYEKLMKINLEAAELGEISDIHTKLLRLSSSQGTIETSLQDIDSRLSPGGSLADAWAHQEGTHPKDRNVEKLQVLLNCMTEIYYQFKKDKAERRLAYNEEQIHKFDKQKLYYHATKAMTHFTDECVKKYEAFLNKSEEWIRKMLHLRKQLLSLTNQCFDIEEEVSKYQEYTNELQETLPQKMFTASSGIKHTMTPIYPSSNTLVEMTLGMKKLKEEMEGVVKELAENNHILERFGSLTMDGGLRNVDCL
Outline: (§1)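 ADP-Glo luminescence reported ADP produced by each kinase, following the kit protocol. Reactions used commercial kinase enzyme systems in buffer of 40 mM Tris (pH 7.5), 20 mM MgCl2 and 0.1 mg/mL BSA.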

IKKε = target: T2, IKKε (Homo sapiens, UniProt Q14164); assay: IKKε inhibition, ADP-Glo Kinase Assay; assay type: biochemical; details: luminometer
T2 construct: purchased Invitrogen PR8031B
T2 sequence (Q14164 1-716): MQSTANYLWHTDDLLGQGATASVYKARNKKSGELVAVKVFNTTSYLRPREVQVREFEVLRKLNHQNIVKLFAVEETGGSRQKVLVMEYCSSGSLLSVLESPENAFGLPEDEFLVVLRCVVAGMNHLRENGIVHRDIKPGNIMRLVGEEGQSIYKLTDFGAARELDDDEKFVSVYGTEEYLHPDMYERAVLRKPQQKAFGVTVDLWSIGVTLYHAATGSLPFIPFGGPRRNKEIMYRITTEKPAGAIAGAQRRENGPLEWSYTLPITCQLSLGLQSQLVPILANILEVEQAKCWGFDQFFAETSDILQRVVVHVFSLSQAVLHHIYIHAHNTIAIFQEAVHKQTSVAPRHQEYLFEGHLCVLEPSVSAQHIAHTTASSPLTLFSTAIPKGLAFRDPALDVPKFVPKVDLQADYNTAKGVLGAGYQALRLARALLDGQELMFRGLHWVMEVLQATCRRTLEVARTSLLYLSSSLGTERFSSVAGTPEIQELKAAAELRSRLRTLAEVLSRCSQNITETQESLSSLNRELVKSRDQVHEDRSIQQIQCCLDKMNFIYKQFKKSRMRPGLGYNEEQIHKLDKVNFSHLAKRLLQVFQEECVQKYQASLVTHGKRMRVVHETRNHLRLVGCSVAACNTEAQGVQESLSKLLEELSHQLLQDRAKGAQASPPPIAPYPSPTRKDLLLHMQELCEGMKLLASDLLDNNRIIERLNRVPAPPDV
Outline: as §1

SMILES | IC50 (TBK1) [µM] | IC50 (IKKε) [µM]
CCC(NCc1ccc2[nH]nc(NC(=O)c3ccc(N4CCN(C)CC4)cc3)c2c1)c1cccs1 (stereo not shown) [Example 124] | 2.44 | > 10
O=C(NCc1cccs1)c1ccc2[nH]nc(NC(=O)c3cccc(N4CCOCC4)c3)c2c1 [Example 156, 3-(3-Morpholinobenzamido)-N-(thiophen-2-ylmethyl)-1H-indazole-5-carboxamide] | 0.077 | 0.29
CCC(C)(NC(=O)c1ccc2[nH]nc(NC(=O)c3ccc(F)cc3)c2c1)c1cccs1 (stereo not shown) [Example 34, 3-(4-Fluorobenzamido)-N-(2-(thiophen-2-yl)butan-2-yl)-1H-indazole-5-carboxamide] | 0.58 | 1.74
CC(C)CCNC(=O)c1ccc2[nH]nc(NC(=O)c3ccc(F)cc3)c2c1 [Example 25, 3-(4-Fluorobenzamido)-N-isopentyl-1H-indazole-5-carboxamide] | 0.42 | 5.87
CN1CCN(c2ccc(C(=O)Nc3n[nH]c4ccc(C(=O)C(C(=O)O)c5cccs5)cc34)cc2)CC1 (stereo not shown) [Example 75, 3-(3-(4-(4-Methylpiperazin-1-yl)benzamido)-1H-indazol-5-yl)-3-oxo-2-(thiophen-2-yl)propanoic Acid] | 0.18 | 0.67
O=C(NCc1ccc(C(F)(F)F)cc1)c1ccc2[nH]nc(NC(=O)c3ccc(N4CCOCC4)cc3)c2c1 [Example 65, 3-(4-Morpholinobenzamido)-N-(4-(trifluoromethyl)benzyl)-1H-indazole-5-carboxamide] | 0.76 | 1.95
CN1CCN(c2ccc(C(=O)Nc3n[nH]c4ccc(C(=O)NCC5CCC5)cc34)cc2)CC1 [Example 106, N-(Cyclobutylmethyl)-3-(4-(4-methylpiperazin-1-yl)benzamido)-1H-indazole-5-carboxamide] | 0.023 | 0.15
CC(NC(=O)c1ccc2[nH]nc(NC(=O)c3ccc(N4CCN(C)CC4)cc3)c2c1)c1ccncc1 (stereo not shown) [Example 133, 3-(4-(4-Methylpiperazin-1-yl)benzamido)-N-(1-(pyridin-4-yl)ethyl)-1H-indazole-5-carboxamide] | 0.028 | 0.053
O=C(NCc1cccs1)c1ccc2[nH]nc(NC(=O)c3ccc(-n4ccnc4)cc3)c2c1 [Example 212, 3-(4-(1H-Imidazol-1-yl)benzamido)-N-(thiophen-2-ylmethyl)-1H-indazole-5-carboxamide] | 0.078 | 0.36
CC(NC(=O)c1ccc2[nH]nc(NC(=O)c3ccc(N4CCN(C)CC4)cc3)c2c1)c1ccccn1 (stereo not shown) [Example 128, 3-(4-(4-Methylpiperazin-1-yl)benzamido)-N-(1-(pyridin-2-yl)ethyl)-1H-indazole-5-carboxamide] | 0.028 | 0.11
O=C(NCc1c[nH]nn1)c1ccc2[nH]nc(NC(=O)c3ccc(N4CCOCC4)cc3)c2c1 [Example 119] | 0.46 | 1.24
CCCCNC(=O)c1ccc2[nH]nc(NC(=O)c3ccc(N4CCOCC4)cc3)c2c1 [Example 115, N-Butyl-3-(4-morpholinobenzamido)-1H-indazole-5-carboxamide 2,2,2-trifluoroacetate] | 0.071 | 0.97
CN1CCN(c2ccc(C(=O)Nc3n[nH]c4ccc(C(=O)NCc5ncon5)cc34)cc2)CC1 [Example 118] | 0.3 | 1.96
O=C(NCc1ccccn1)c1ccc2[nH]nc(NC(=O)c3ccc(F)cc3)c2c1 [Example 28, 3-(4-Fluorobenzamido)-N-(pyridin-2-ylmethyl)-1H-indazole-5-carboxamide2,2,2-trifluoroacetate] | 0.73 | 2.62
CCC[C@H](NC(=O)c1ccc2[nH]nc(NC(=O)c3ccc(N4CCN(C)CC4)cc3)c2c1)c1ccccc1 [Example 193, (S)-3-(4-(4-Methylpiperazin-1-yl)benzamido)-N-(1-phenylbutyl)-1H-indazole-5-carboxamide] | 0.8 | 4.47

Stronger by IC50 (TBK1), values ahead:

IC50 (TBK1) [µM] | IC50 (IKKε) [µM] | SMILES
0.011 | 0.047 | CC(NC(=O)c1ccc2[nH]nc(NC(=O)c3ccc(N4CCN(C)CC4)cc3)c2c1)c1cncs1 (stereo not shown) [Example 83, 3-(4-(4-Methylpiperazin-1-yl)benzamido)-N-(1-(thiazol-5-yl)ethyl)-1H-indazole-5-carboxamide]
0.0039 | 0.021 | CC(NC(=O)c1ccc2[nH]nc(NC(=O)c3ccc(N4CCN(C)CC4)cc3)c2c1)c1ccco1 (stereo not shown) [Example 81, N-(1-(Furan-2-yl)ethyl)-3-(4-(4-methylpiperazin-1-yl)benzamido)-1H-indazole-5-carboxamide]
0.0051 | 0.047 | CCC(NC(=O)c1ccc2[nH]nc(NC(=O)c3ccc(N4CC(C)OC(C)C4)cc3)c2c1)c1cccs1 (stereo not shown) [Example 96, 3-(4-(2,6-Dimethylmorpholino)benzamido)-N-(1-(thiophen-2-yl)propyl)-1H-indazole-5-carboxamide 2,2,2-trifluoroacetate]
0.003 | 0.023 | CCC(NC(=O)c1ccc2[nH]nc(NC(=O)c3ccc(N4CCN[C@H](C)C4)cc3)c2c1)c1cccs1 (stereo partly drawn) [Example 98, 3-(4-((R)-3-Methylpiperazin-1-yl)benzamido)-N-(1-(thiophen-2-yl)propyl)-1H-indazole-5-carboxamide 2,2,2-trifluoroacetate]
0.0056 | 0.079 | CC1CN(c2ccc(C(=O)Nc3n[nH]c4ccc(C(=O)NCc5cccs5)cc34)cc2)CC(C)N1 (stereo not shown) [Example 89, 3-(4-(3,5-Dimethylpiperazin-1-yl)benzamido)-N-(thiophen-2-ylmethyl)-1H-indazole-5-carboxamide 2,2,2-trifluoroacetate]
0.0023 | 0.12 | CC(NC(=O)c1ccc2[nH]nc(NC(=O)c3ccc(N4CCOCC4)cc3)c2c1)c1ccccc1 (stereo not shown) [Example 180, 3-(4-Morpholinobenzamido)-N-(1-phenylethyl)-1H-indazole-5-carboxamide]
0.004 | 0.044 | Cc1cc(N2CCOCC2)ccc1C(=O)Nc1n[nH]c2ccc(C(=O)NCc3cccs3)cc12 [Example 73, 3-(2-Methyl-4-morpholinobenzamido)-N-(thiophen-2-ylmethyl)-1H-indazole-5-carboxamide]
0.018 | 0.18 | CCCCNC(=O)c1ccc2[nH]nc(NC(=O)c3ccc(N4CCN(C)CC4)cc3)c2c1 [Example 113, N-Butyl-3-(4-(4-methylpiperazin-1-yl)benzamido)-1H-indazole-5-carboxamide 2,2,2-trifluoroacetate]
0.021 | > 10 | CC(NC(=O)c1ccc2[nH]nc(NC(=O)c3ccc(N4CCN(C)CC4)cc3)c2c1)c1cccnc1 (stereo not shown) [Example 53, 3-(4-(4-Methylpiperazin-1-yl)benzamido)-N-(1-(pyridin-3-yl)ethyl)-1H-indazole-5-carboxamide]
0.0014 | 0.014 | CN1CCN(c2ccc(C(=O)Nc3n[nH]c4ccc(C(=O)NCc5ccsc5)cc34)cc2)CC1 [Example 47, 3-(4-(4-Methylpiperazin-1-yl)benzamido)-N-(thiophen-3-ylmethyl)-1H-indazole-5-carboxamide]
0.0037 | 0.015 | CC(NC(=O)c1ccc2[nH]nc(NC(=O)c3ccc(N4CCN[C@@H](C)C4)cc3)c2c1)c1ccccc1 (stereo partly shown) [Example 184, 3-(4-((8)-3-Methylpiperazin-1-yl)benzamido)-N-(1-phenylethyl)-1H-indazole-5-carboxamide 2,2,2-trifluoroacetate]
